Measured values as given in the supplement of paper PMC10331698.
± gives the standard deviation of the averaged measurements.

Legend:
Experiment in all cases: level (log10 ratio to DMSO vehicle control); higher = higher biomarker level / cell amount than vehicle control
[1] = compound: OCCC(F)(F)C(F)(F)C(F)(F)C(F)(F)C(F)(F)C(F)(F)F [6:2 Fluorotelomer alcohol]; conditions: in DMSO
Procedure: (§1)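 BioMAP Diversity Plus panel of 12 human primary cell co-culture systems (3C, 4H, LPS, SAg, BT, BF4T, BE3C, CASM3C, HDF3CGF, KF3CT, MyoF, Mphg). Compounds were added 1 h before stimulation and left for 24 h (MyoF 48 h; BT 72 h for soluble read-outs or 6 d for IgG). Biomarkers were read by ELISA, cytotoxicity by SRB, PBMC viability and proliferation by Alamar Blue. Each well value was divided by the mean of 8 DMSO control wells on the same plate and log10 transformed; duplicate blinded samples were tested at 4 concentrations.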

[2] = compound: COC(=O)CCC(F)(F)C(F)(F)C(F)(F)C(F)(F)F [Methyl 2H,2H,3H,3H-perfluoroheptanoate]; conditions: in DMSO
Procedure: as §1

[3] = compound: NCC(F)(F)C(F)(F)C(F)(F)C(F)(F)C(F)(F)C(F)(F)C(F)(F)F [1H,1H-Perfluorooctylamine]; conditions: in DMSO
Procedure: as §1

[4] = compound: FC(F)C(F)(F)COCC1CO1 [((2,2,3,3-Tetrafluoropropoxy)methyl)oxirane]; conditions: in DMSO
Procedure: as §1

Perfluorodecanoic acid = compound: O=C(O)C(F)(F)C(F)(F)C(F)(F)C(F)(F)C(F)(F)C(F)(F)C(F)(F)C(F)(F)C(F)(F)F [Perfluorodecanoic acid]; conditions: in DMSO
Procedure: as §1

Perfluorobutanoic acid = compound: O=C(O)C(F)(F)C(F)(F)C(F)(F)F [Perfluorobutanoic acid]; conditions: in DMSO
Procedure: as §1

[5] = compound: OCCCC(F)(F)C(F)(F)C(F)(F)C(F)(F)C(F)(F)C(F)(F)C(F)(F)F [7:3 Fluorotelomer alcohol]; conditions: 6700 nM; in DMSO
Procedure: as §1

Test System | level (log10) ([1]; 6700 nM) | level (log10) ([1]; 20000 nM) | level (log10) ([2]; 6700 nM) | level (log10) ([2]; 20000 nM) | level (log10) ([2]; 60000 nM) | level (log10) ([3]; 6700 nM) | level (log10) ([3]; 20000 nM) | level (log10) ([3]; 60000 nM) | level (log10) ([4]; 6700 nM) | level (log10) ([4]; 20000 nM) | level (log10) ([4]; 60000 nM) | level (log10) (Perfluorodecanoic acid; 6700 nM) | level (log10) (Perfluorodecanoic acid; 20000 nM) | level (log10) (Perfluorobutanoic acid; 6700 nM) | level (log10) (Perfluorobutanoic acid; 20000 nM) | level (log10) (Perfluorobutanoic acid; 60000 nM) | level (log10) [5]
lMphg:CD106/VCAM-1 | -0.016 ± 0.0028 | -0.0155 ± 0.013 | -0.0055 ± 0.012 | 0.009 ± 0.0057 | 0.0055 ± 0.037 | -0.005 ± 0.0014 | -0.003 ± 0.014 | -0.0165 ± 0.005 | -0.016 ± 0.038 | -0.0155 ± 0.025 | -0.017 ± 0.017 | 0.004 ± 0.0014 | -0.0145 ± 0.053 | -0.0165 ± 0.025 | -0.007 ± 0.034 | -0.0085 ± 0.022 | -0.009 ± 0.027
BE3C:MMP-9 | 0.0055 ± 0.0078 | -0.0215 ± 0.022 | -0.001 ± 0.011 | -0.0065 ± 0.023 | -0.0155 ± 0.013 | 0.001 ± 0.023 | -0.0105 ± 0.032 | 0.005 ± 0.048 | -0.0135 ± 0.015 | -0.03 ± 0.028 | -0.005 ± 0.0028 | 0.008 ± 0.014 | -0.458 ± 0.0028 | -0.0075 ± 0.021 | -0.007 ± 0.035 | -0.0145 ± 0.015 | 0.0055 ± 0.026
HDF3CGF:TIMP-2 | -0.007 ± 0.025 | 0.004 ± 0.021 | 0.0295 ± 0.019 | -0.0065 ± 0.03 | 0.0195 ± 0.043 | -0.03 ± 0.059 | -0.013 ± 0.052 | -0.0245 ± 0.016 | -0.018 ± 0.0057 | -0.008 ± 0.0071 | -0.0275 ± 0.0078 | -0.006 ± 0.028 | -0.349 ± 0.17 | -0.0015 ± 0.0035 | -0.0055 ± 0.015 | -0.0115 ± 0.036 | 0.0005 ± 0.013
KF3CT:uPA | -0.015 ± 0.023 | -0.0055 ± 0.015 | -0.007 ± 0.033 | 0.0005 ± 0.0092 | -0.008 ± 0.025 | -0.017 ± 0.0028 | -0.0135 ± 0.0078 | -0.0225 ± 0.019 | 0.0015 ± 0.0092 | -0.0045 ± 0.032 | -0.0005 ± 0.015 | -0.0095 ± 0.013 | 0 ± 0.023 | -0.017 ± 0.017 | -0.018 ± 0.0099 | 0.005 ± 0.02 | -0.0075 ± 0.0064
BE3C:MMP-1 | -0.0245 ± 0.036 | -0.0195 ± 0.028 | 0.0035 ± 0.052 | 0.004 ± 0.045 | 0.03 ± 0.1 | -0.0305 ± 0.042 | -0.0235 ± 0.026 | -0.001 ± 0.04 | -0.013 ± 0.02 | -0.0335 ± 0.019 | -0.0185 ± 0.0078 | 0.211 ± 0.041 | -0.4875 ± 0.0035 | -0.004 ± 0.034 | -0.0075 ± 0.013 | 0.021 ± 0.014 | 0.016 ± 0.033
MyoF:MMP-1 | 0 ± 0.016 | -0.0035 ± 0.005 | -0.009 ± 0.0071 | -0.019 ± 0.011 | 0.0305 ± 0.12 | -0.0095 ± 0.016 | -0.0395 ± 0.012 | -0.0055 ± 0.025 | 0.0115 ± 0.0035 | -0.031 ± 0.018 | 0.0045 ± 0.005 | -0.0005 ± 0.023 | -0.048 ± 0.0057 | -0.027 ± 0.0028 | -0.0135 ± 0.016 | -0.0005 ± 0.04 | -0.004
KF3CT:CXCL8/IL-8 | 0 ± 0.0057 | -0.0165 ± 0.005 | -0.0125 ± 0.019 | -0.007 ± 0.013 | 0.0175 ± 0.044 | -0.0205 ± 0.035 | -0.0295 ± 0.029 | -0.014 ± 0.0085 | -0.024 ± 0.02 | -0.0035 ± 0.0092 | -0.001 ± 0.0071 | -0.0225 ± 0.011 | -0.0035 ± 0.018 | 0.012 ± 0.013 | -0.009 ± 0.0085 | 0.0045 ± 0.013 | 0.0035 ± 0.043
lMphg:SRB-Mphg | -0.0055 ± 0.0064 | -0.0255 ± 0.011 | -0.0285 ± 0.012 | -0.022 ± 0.095 | 0.04 ± 0.057 | -0.0055 ± 0.005 | -0.007 ± 0.0042 | 0.0055 ± 0.032 | 0.0075 ± 0.016 | 0.021 ± 0.025 | 0.02 ± 0.033 | 0.0065 ± 0.00071 | -0.005 ± 0.0085 | -0.059 ± 0.054 | -0.0275 ± 0.18 | 0.0175 ± 0.17 | -0.0015 ± 0.0021
